System: H1 human embryonic stem cells
Assay: Four-step differentiation before transplant, RT-PCR of pancreatic endoderm markers after step 4 (Example 18)
Type: cell-based
Conditions: GDF-8 100 ng/ml + 2.5 μM compound in step 1, versus activin A and Wnt3a
Protocol: The differentiation process was started three days after the cells were seeded onto 6-well plates coated with reduced growth factor […]™. A four-step protocol was used for the in vitro differentiation of H1 human embryonic stem cells to cells expressing markers characteristic of the pancreatic endoderm lineage. Step 1 was conducted over three days to generate definitive endoderm cells. On the first day of step 1, differentiation was initiated by aspirating spent culture medium and adding an equal volume of RPMI-1640 basal medium (Invitrogen; Cat 22400) with 2% Albumin Bovine Fraction V, Fatty Acid Free (FAF BSA) (Proliant Biologicals; Cat #SKU 68700) and 8 ng/ml bFGF. In one treatment group, cells were exposed to 100 ng/ml activin A (PeproTech; Cat #120-14) with 20 ng/ml Wnt3a (R&D Systems; Cat #1324-WN/CF). In a second treatment group, cells were exposed to 100 ng/ml GDF-8 (R&D Systems; Cat #788-G8) with 2.5 μM Compound 40. In a third treatment group, cells were exposed to 100 ng/ml GDF-8 (R&D Systems; Cat #788-G8) with 2.5 μM Compound 202. […]
Step 4 of the differentiation protocol was conducted over three days. […] On the following day, cells in suspension culture were collected and counted. […]

C=CCN1CC(=O)NCCCc2cncc(c2)-c2ncnc(n2)Nc2cccc(c2)C1 [Compound 40, 14-Prop-2-en-1-yl-3,5,7,14,17,23,27-heptaazatetracyclo[19.3.1.1˜2.6˜0.1˜8,12˜]heptacosa-1(25), 2(27), 3,5,8(26), 9,11,21,23-nonaen-16-one]
PE markers CDX2, MAFA, NGN3, NKX6.1, PDX1 and Ptf1 alpha at the conclusion of step 4 (RT-PCR): expressed equivalent levels of PE markers

Source: patent US9593305B2, “Differentiation of pluripotent stem cells” (Janssen Biotech, Inc., priority 2008, dated 2017)
